Where two headings read alike, the source gives them in different places.

Data on four compounds can be found in patent US11351229B2, “Combination therapies for treating infantile spasms and other treatment resistant epilepsies” (Baylor College of Medicine, priority 2017, dated 2022).

Data set [1] is described as follows: Plasma concentration of vigabatrin alone or co-administered with (1-3)IGF-1. Type of data set: in vivo, rat. The settings on record: vigabatrin 125 mg/kg, (1-3)IGF-1 20 mg/kg, rats. How it is done:
FIG. 21 illustrates plasma concentration for vigabatrin (administered to rats at 125 mg/kg) when administered alone or in combination with (1-3)IGF-1 (20 mg/kg).

The test system of data set [2] is IGF-1R-PI3K-AKT and IGF-1R-Ras-ERK signaling cascades. The data set is described as follows: Western blots of IGF-1R signaling in neocortex (Example 9). It is filed as in vivo. How it is done:
Briefly, brains were quickly removed from the skull under anesthesia and the cortex dissected free from adhering tissue. It was then snap frozen on dry ice and later homogenized by sonication. Protein concentrations were determined by the BCA assay. Equal quantities of protein (10 μg) from each sample were resolved by polyacrylamide gel electrophoresis. The primary antibodies used were against: pAKT Thr308, pAkt Ser473, pS6 Ser240/244, AKT, S6, IGF-1R. Secondary antibodies were conjugated to horseradish peroxidase and visualization of immunoreactive bands was produced by enhanced chemiluminescence and then exposed to Kodak Biomax film. After digitization, band intensity was quantified with Image J Image software. Blots were also probed with antibodies to GAPDH, which served as a loading control. Band intensity was normalized to control values on the same blot.
The experiments were performed using N=5 for both control and epileptic groups. Animals were 6 weeks old and sacrificed 2 hours after treatment.
Animals (6 weeks old) were treated with 50 mg/kg of PPP or DMSO vehicle. Four hours later, they received 20 mg/kg of (1-3)IGF-1 or vehicle. Two hour later the neocortex was collected.
Vigabatrin (125 mg/kg) was injected 2 and 24 hours before collecting neocortex. Western blots from 2 animals and controls are shown in upper panel (FIG. 25A) for bar graphs n=6. For the combination study, the animals were administered vigabatrin (125/mg/kg), and (1-3)IGF-1 (20 mg/kg) was injected 30 min before collecting cortex in the combination group and the (1-3)IGF-1-only group. Controls received vehicle only. The results are illustrated in FIG. 25B.
A general note: In western blotting, separated proteins are transferred to a membrane and probed.

The conditions of data set [3]: human, in vivo; cited from earlier work.
Data set [4] concerns hypsarrhythmia (abnormal EEG pattern). Description: EEG analysis for hypsarrhythmia in rats with spasms. Type of data set: in vivo, rat. The settings on record: VGB 325 mg/kg/day, 2 weeks; 5 rats with pattern at baseline.
The test system of data set [5] is epileptic spasms (TTX rat model of infantile spasms). It is filed as in vivo.
Where [6] appears, read: each drug alone: VGB 250 mg/kg/day or (1-3)IGF-1 10 mg/kg/day, 2 weeks.

As to `NCC(=O)N1CCC[C@H]1C(=O)N[C@@H](CCC(=O)O)C(=O)O` [(1-3)IGF-1, Gly-Pro-Glu], the “effect of co-administration on vigabatrin pharmacokinetics (plasma concentration)” value in data set [1] is reported as “no discernible effect”.
Consider `COc1cc([C@@H]2c3cc4c(cc3[C@H](O)[C@H]3COC(=O)[C@@H]23)OCO4)cc(OC)c1OC` [picropodophyllin, (5R,5aR,8aS,9R)-5-hydroxy-9-(3,4,5-trimethoxyphenyl)-5a,6,8a,9-tetrahydro-5H-[2]benzofuro[5,6-f][1,3]benzodioxol-8-one], for which the “effect on (1-3)IGF-1 induced activation of AKT” value in data set [2] (50 mg/kg PPP, 4 hours before 20 mg/kg (1-3)IGF-1, neocortex collected 2 hours later) is on record as “blocks”.
In the case of `C=CC(N)CCC(=O)O` (stereo not shown) [vigabatrin, γ-vinyl-GABA], in data set [3], the “adults with visual field loss” value is given as 52%, the “children with visual field loss” value is reported as 34% and the “vigabatrin-treated subjects with visual field loss” value was 44%. Also, the hypsarrhythmia after treatment result in data set [4] is recorded as “eliminated in all of them”. In addition, the “activation of IGF-1R signaling” value in data set [2] (vigabatrin 125 mg/kg, 2 and 24 hours before collecting neocortex) is recorded as “does not activate”. The “effect on (1-3)IGF-1-induced IGF-1R signaling” value in data set [2] (vigabatrin 125 mg/kg, (1-3)IGF-1 20 mg/kg 30 min before collecting cortex) is given as “does not alter”. Further, the “spasm counts (in words)” value in data set [5] (VGB 325 mg/kg/day i.p., 2 weeks, vs vehicle controls) is given as “dramatic reduction in spasm counts”. Moreover, in data set [5] (setting [6]), the “effect on spasm counts (in words)” value was “modest effects on spasm counts” and the “presence of spasms after treatment, all rats” value is given as “continued to have spasms”. For the same compound, the “effect on % animals with spasms” value in data set [5] (individual administration: vigabatrin 125 mg/kg/day or (1-3)IGF-1 20 mg/kg/day, 2 weeks) is “no measurable effect”. In addition, the “effect on % animals with spasms” value in data set [5] (individual administration: vigabatrin 250 mg/kg/day or (1-3)IGF-1 10 mg/kg/day, 2 weeks) is reported as “no measurable effect”.
With “rhIGF-1: rhIGF-1 from Peprotech; the full length growth factor”, in data set [5] (rhIGF-1 1 mg/kg/day, 3 weeks), the “rats that became free of spasms” value is recorded as “One of the 5”; the “rats that continued to have spasms after treatment” value is 4 of 5; the “reduction of spasm counts, on average” value was determined as 40%.
